Source: US12226396B2, “Gluconic acid derivatives for use in the treatment and/or prevention of microbial infections” (GEDEA BIOTECH AB, priority 2017, dated 2025)

Columns and labels:
[1] = system: C. albicans; assay: Mature biofilm cell survival, serial dilution plating on YPD; type: cell-based, Candida albicans
Description: The plated cells were incubated for 24 h at 37° C. and visually analyzed. The cells from the mature biofilm treated with water were used as a control. […] At the concentrations of 0.2 and 0.5 g/ml after 5 h of incubation the cell viability was decreased by about 100 times for both C. albicans and C. glabrata.

[2] = system: Escherichia coli CCUG 3274/ATCC 10536; assay: MIC microdilution test; type: cell-based; settings: CCUG 3274, aerobic
Description: (§1) The test substance solution was prepared aseptically at 1 g/ml in sterile H2O. […] After 48 and 72 hours of incubation, the OD was measured and ocular assessments were done. […] All strains were recovered from microbanks and streak and subculture plates were made. The aerobes on TSA plates, the fastidious aerobes on horse blood plates and the anaerobe on FAA plates. […] At the time of testing, loopfuls of colonies selected from 18- to 24-hour agar plates for the aerobes and fastidious aerobes were suspended in 5 ml saline in 10 ml tubes containing 10 glass beads a 3 mm in diameter. […] The cell suspensions were then vortexed vigorously for 1 minute to obtain a turbid suspension. Each suspension of the aerobes and fastidious aerobes was adjusted to equal OD 0.28 at 475 nm using a spectrophotometer, which correlates approximately to 1-3×10^8 CFU/ml with most species. For the anaerobe, the OD measurement turned out to be difficult due to the use of blood in the culture medium. […] The aerobes and fastidious aerobes were further diluted in saline 10 times so that the inoculum concentration equaled to […]. The anaerobe was not diluted but used directly as is. The different aerobic and fastidious aerobic bacterial suspensions were transferred to respective wells of a 96 well plate. A. baumannii, E. coli, and P. aeruginosa were placed in one row, the Staphylococci spp. were placed in a second row, and the fastidious aerobes were placed in a third row of the plate. The anaerobe was transferred from a 25 ml multichannel pipette reservoir. The Microdilution Preparations and the MIC tests were performed as in example 13.

[3] = system: Staphylococcus epidermidis CCUG 23118; assay: MIC microdilution test; type: cell-based; settings: CCUG 23118, aerobic
Description: as §1

[4] = system: Porphyromonas gingivalis CCUG 25893/ATCC 33277; assay: MIC microdilution test; type: cell-based; settings: CCUG 25893, strict anaerobic conditions
Description: as §1

[5] = system: Streptococcus pyogenes CCUG 47803/ATCC 700294; assay: MIC microdilution test; type: cell-based; settings: CCUG 47803, 5% CO2
Description: as §1

[6] = system: Staphylococcus aureus CCUG 15915/ATCC 29213; assay: MIC microdilution test; type: cell-based; settings: CCUG 15915, aerobic
Description: as §1

[7] = system: Acetinobacter baumanii CCUG 57035; assay: MIC microdilution test; type: cell-based; settings: CCUG 57035, aerobic
Description: as §1

[8] = system: Beta-Hemolytic Streptococci Groups C Streptococcus dysgalactiae ss equisimilis CCUG 4211; assay: MIC microdilution test; type: cell-based; settings: CCUG 4211, 5% CO2
Description: as §1

[9] = system: Streptococcus agalactiae CCUG 29376; assay: MIC microdilution test; type: cell-based; settings: CCUG 29376, 5% CO2
Description: as §1

[10] = system: Pseudomonas aeruginosa (PAO1) CCUG 56489/ATCC 15692; assay: MIC microdilution test; type: cell-based; settings: CCUG 56489, aerobic
Description: as §1

[11] = system: Beta-Hemolytic Streptococci Groups G Streptococcus dysgalactiae ss equisimilis CCUG 7975; assay: MIC microdilution test; type: cell-based; settings: CCUG7975, 5% CO2
Description: as §1

[12] = system: Escherichia coli K12; assay: E. coli biofilm study in M9 medium (crystal violet); type: cell-based
Description: The bacterial strain Escherichia coli K12 was used for the biofilm study. This strain was maintained on LB medium at 37° C. The biofilm was studied in synthetic medium M9 (×1 M9 minimal salts (Sigma M6030), 2 mM MgSO4, 0.1 mM CaCl2, and 0.2% glucose), which contained either phosphate buffer, citric acid, lactic acid, gluconic acid or glucono-O-lactone to obtain media with different pH (2.6-6.6).
The overnight culture of E. coli K12 (OD600˜5.0) was washed with sterile water and inoculated to the final concentration 0.2 OD/ml of M9 medium with different pH of different compounds. The biofilm development was studied in 96-well flat-bottom polystyrene microtiter plates (Sigma Aldrich, Corning® Costar® culture plates, CLS3596-50EA). The biofilm was stained with crystal violet.

## O=C1O[C@H](CO)[C@@H](O)[C@H](O)[C@H]1O [GDA, glucono-δ-lactone]
[1]; 0.2 and 0.5 g/ml, 5 h of incubation, 37° C
  decrease of cell viability: about 100 times
[1]; 0.5 g/ml, 73 h of incubation
  decrease of cell viability: about 1000 times
[2]
  MIC (g/ml): 0.0063 g/ml
[3]
  MIC (g/ml): 0.0031 g/ml
[4]
  MIC (g/ml): 0.0031 g/ml
[5]
  MIC (g/ml): 0.0031 g/ml
[6]
  MIC (g/ml): 0.0063 g/ml
[7]
  MIC (g/ml): 0.0031 g/ml
[8]
  MIC (g/ml): 0.0016 g/ml
[9]
  MIC (g/ml): 0.0031 g/ml
[10]
  MIC (g/ml): 0.0031 g/ml
[11]
  MIC (g/ml): 0.0031 g/ml
[12]; M9 medium, 24-48 hours
  effect on growth (biomass): inhibiting effect on the growth
[12]; pH 2.6, 24 h
  decrease of biofilm formation: 14.2 times
[12]; pH 2.6, 48 h
  decrease of biofilm formation: 30 times
